Test results from US20110183991A1, “5HT7 RECEPTOR LIGANDS AND COMPOSITIONS COMPRISING THE SAME” (LABORATORIOS DEL DR. ESTEVE, S.A., priority 2008, published 2011).
pEC50: −log10 of the molar value.

Molecular target: T1, Cloned Human Serotonin Receptor, Subtype 7 (h5HT7), expressed in CHO cells (Homo sapiens, UniProt P34969)
T1 construct: purchased PerkinElmer 6120512; host or cells: CHO cells
Assay: Radioligand binding assay, [125I]LSD, cloned human 5HT7 receptor on Flashplate
Details: not given
Method: The protocol assay was essentially the recommended protocol in the Technical Data Sheet by PerkinEmer Life and Analytical Sciences. The Mass membrane protein/well was typically 12 μg and the Receptor/well was about 9-10 fmoles. The Flashplate were let equilibrate at room temperature for one hour before the addition of the components of the assay mixture. The binding buffer was: 50 mM Tris-HCl, pH 7.4, containing 10 mM MgCl2, 0.5 mM EDTA and 0.5% BSA. […] Nonspecific binding was determined with 50 μM of Clozapine. The assay volume was 25 μl. TopSeal-A were applied onto Flashplate microplates and they were incubated at room temperature for 240 minutes in darkness.

T1 sequence (P34969 whole entry): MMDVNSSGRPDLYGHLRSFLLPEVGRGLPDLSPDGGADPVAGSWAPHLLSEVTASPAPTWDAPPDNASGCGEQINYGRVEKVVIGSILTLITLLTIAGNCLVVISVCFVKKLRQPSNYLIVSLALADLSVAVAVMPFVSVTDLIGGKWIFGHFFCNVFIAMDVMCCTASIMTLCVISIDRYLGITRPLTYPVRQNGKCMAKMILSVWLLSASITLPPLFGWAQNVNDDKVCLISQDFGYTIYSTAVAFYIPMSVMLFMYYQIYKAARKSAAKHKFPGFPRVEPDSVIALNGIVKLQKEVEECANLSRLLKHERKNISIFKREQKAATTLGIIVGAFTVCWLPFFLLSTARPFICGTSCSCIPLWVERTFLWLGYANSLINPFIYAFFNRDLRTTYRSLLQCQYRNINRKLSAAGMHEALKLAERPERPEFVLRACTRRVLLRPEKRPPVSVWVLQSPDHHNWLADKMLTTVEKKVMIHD

| Structure (SMILES) | affinity for the 5HT7 receptor (in words) |
| --- | --- |
| COc1ccc(C(C)C)cc1CN1CCN(c2cccc3[nH]ccc23)CC1 [Ex 29, 4-(4-(5-isopropyl-2-methoxybenzyl)piperazin-1-yl)-1H-indole] | good affinity |
| CCOc1ccccc1N1CCN(Cc2c[nH]c3ccccc23)CC1 [c, 3-((4-(2-ethoxyphenyl)piperazin-1-yl)methyl)-1H-indole] | good affinity |
| CN(C)S(=O)(=O)c1ccc2[nH]cc(CCN)c2c1 [compound a, 3-(2-aminoethyl)-N,N-dimethyl-1H-indole-5-sulfonamide] | good affinity |
| CC(C)Oc1ccccc1N1CCN(Cc2ccc(-n3ccnc3)cc2)CC1 [e, 1-(4-(1H-imidazol-1-yl)benzyl)-4-(2-isopropoxyphenyl)piperazine] | good affinity |
| O=c1[nH]c2ccccc2n1C1=CCN(CCCOc2ccccc2)CC1 [j, 1-(1-(3-phenoxypropyl)-1,2,3,6-tetrahydropyridin-4-yl)-1H-benzo[d]imidazol-2(3H)-one] | good affinity |
| O=C(c1cccs1)C1CN2CCC1CC2 (stereo not shown) [l, quinuclidin-3-yl(thiophen-2-yl)methanone] | good affinity |

Same assay, conditions: 5HT7 binding experiments on the screening selection

| Structure (SMILES) | affinity for the 5HT7 receptor (in words) |
| --- | --- |
| CC(C)Oc1ccccc1N1CCN(Cc2ccc(Cl)nc2)CC1 [b, 1-((6-chloropyridin-3-yl)methyl)-4-(2-isopropoxyphenyl)piperazine] | good affinity |
| O=c1[nH]c2ccccc2n1C1CCN(CCOc2ccccc2)CC1 [compound i, 1-(1-(2-phenoxyethyl)piperidin-4-yl)-1H-benzo[d]imidazol-2(3H)-one] | good affinity |
| COc1ccccc1N1CCN(CCC(O)c2ccccc2)CC1 (stereo not shown) [d, 3-(4-(2-methoxyphenyl)piperazin-1-yl)-1-phenylpropan-1-ol] | good affinity |
| COc1ccccc1N1CCN(CCC(=O)Nc2ccc3c(c2)CCC3)CC1 [f, N-(2,3-dihydro-1H-inden-5-yl)-3-(4-(2-methoxyphenyl)piperazin-1-yl)propanamide] | good affinity |
| O=c1[nH]c2ccccc2n1C1=CCN(CCOc2ccccc2)CC1 [k, 1-(1-(2-phenoxyethyl)-1,2,3,6-tetrahydropyridin-4-yl)-1H-benzo[d]imidazol-2(3H)-one] | good affinity |

Same assay, conditions: compound at 10^−6 M; radioligand [125I]LSD 0.82 nM; read-out: %-Inhib. (10^−6 M)

| Structure (SMILES) | inhibition at 1 µM [%] |
| --- | --- |
| O=[N+]([O-])c1cccc(CN2CCN(c3cccc4[nH]ccc34)CC2)c1 [Ex 36, 4-(4-(3-nitrobenzyl)piperazin-1-yl)-1H-indole] | 41.5 |

Molecular target: 5HT7 receptor (Homo sapiens, UniProt P34969)
Assay: 5HT7 agonist functionality (EC50 agonist)
Format: cell-based
Details: screening data, agonist reference hit

Chain of 5HT7 receptor (P34969 whole entry): as above

| Structure (SMILES) | pEC50 |
| --- | --- |
| COc1ccc(C(C)C)cc1CN1CCN(c2cccc3[nH]ccc23)CC1 [Ex 29, 4-(4-(5-isopropyl-2-methoxybenzyl)piperazin-1-yl)-1H-indole] | 8.18 |
